Assay results published in ChEMBL document CHEMBL1201862, “PubChem BioAssay data set” (2004).
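Exposure lasted 48 hours, with cells grown in 96-well plates and compounds tested at five concentrations. GI50 = concentration required for 50% inhibition of growth.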 Calls of active or inactive are those of the source. Rule as the data show it: active = GI50 up to about 1.1 µM and inactive = higher.

Key:
Assay in all cases: growth of human tumour cells (NCI), 48 h
786-0 = tested on: 786-0
A498 = tested on: A498
A549 = tested on: A549
CAKI-1 = tested on: CAKI-1
CCRF-CEM = tested on: CCRF-CEM
COLO 205 = tested on: COLO 205
DLD-1 = tested on: DLD-1
DMS-114 = tested on: DMS-114
DMS-273 = tested on: DMS-273
EKVX = tested on: EKVX
HCC 2998 = tested on: HCC 2998
HCT-116 = tested on: HCT-116
HCT-15 = tested on: HCT-15
HL-60 = tested on: HL-60
HOP-18 = tested on: HOP-18
HOP-62 = tested on: HOP-62
HOP-92 = tested on: HOP-92
HT-29 = tested on: HT-29
IGROV-1 = tested on: IGROV-1
K562 = tested on: K562
KM12 = tested on: KM12
LOX IMVI = tested on: LOX IMVI
LXFL 529 = tested on: LXFL 529
M19-MEL = tested on: M19-MEL
MOLT-4 = tested on: MOLT-4
Malme-3M = tested on: Malme-3M
NCI-H226 = tested on: NCI-H226
NCI-H23 = tested on: NCI-H23
NCI-H522 = tested on: NCI-H522
OVCAR-3 = tested on: OVCAR-3
OVCAR-4 = tested on: OVCAR-4
OVCAR-5 = tested on: OVCAR-5
OVCAR-8 = tested on: OVCAR-8
RPMI-8226 = tested on: RPMI-8226
SF-268 = tested on: SF-268
SF-295 = tested on: SF-295
SF-539 = tested on: SF-539
SK-MEL-28 = tested on: SK-MEL-28
SK-MEL-2 = tested on: SK-MEL-2
SK-MEL-5 = tested on: SK-MEL-5
SK-OV-3 = tested on: SK-OV-3
SN12C = tested on: SN12C
SNB-19 = tested on: SNB-19
SNB-75 = tested on: SNB-75
SNB-78 = tested on: SNB-78
SW-620 = tested on: SW-620
TK-10 = tested on: TK-10
U-251 = tested on: U-251
UACC-257 = tested on: UACC-257
UACC-62 = tested on: UACC-62
UO-31 = tested on: UO-31
XF498 = tested on: XF498
ACHN = tested on: ACHN
KM-20L2 = tested on: KM-20L2
M14 = tested on: M14
NCI-H460 = tested on: NCI-H460
RXF 393 = tested on: RXF 393
SR = tested on: SR

CCN1c2ccccc2C(C(SC)S(=O)(=O)c2ccc(C)cc2)c2c1[nH]c(=O)n(C)c2=O (stereo not given)
GI50 (786-0): > 100 µM (inactive) | GI50 (A498): > 100 µM (inactive) | GI50 (A549): > 100 µM (inactive) | GI50 (CAKI-1): > 100 µM (inactive) | GI50 (CCRF-CEM): > 100 µM (inactive) | GI50 (COLO 205): > 100 µM (inactive) | GI50 (DLD-1): > 100 µM (inactive) | GI50 (DMS-114): > 100 µM (inactive) | GI50 (DMS-273): > 100 µM (inactive) | GI50 (EKVX): > 100 µM (inactive) | GI50 (HCC 2998): > 100 µM (inactive) | GI50 (HCT-116): > 100 µM (inactive) | GI50 (HCT-15): > 100 µM | GI50 (HL-60): 89.9 µM (inactive) | GI50 (HOP-18): 22.9 µM (inactive) | GI50 (HOP-62): > 100 µM (inactive) | GI50 (HOP-92): > 100 µM (inactive) | GI50 (HT-29): > 100 µM (inactive) | GI50 (IGROV-1): > 100 µM (inactive) | GI50 (K562): > 100 µM (inactive) | GI50 (KM12): > 100 µM (inactive) | GI50 (LOX IMVI): > 100 µM (inactive) | GI50 (LXFL 529): > 100 µM (inactive) | GI50 (M19-MEL): > 100 µM (inactive) | GI50 (MOLT-4): 94 µM (inactive) | GI50 (Malme-3M): 88.1 µM (inactive) | GI50 (NCI-H226): > 100 µM (inactive) | GI50 (NCI-H23): > 100 µM (inactive) | GI50 (NCI-H522): > 100 µM (inactive) | GI50 (OVCAR-3): > 100 µM (inactive) | GI50 (OVCAR-4): > 100 µM (inactive) | GI50 (OVCAR-5): > 100 µM (inactive) | GI50 (OVCAR-8): > 100 µM (inactive) | GI50 (RPMI-8226): > 100 µM (inactive) | GI50 (SF-268): > 100 µM (inactive) | GI50 (SF-295): > 100 µM (inactive) | GI50 (SF-539): > 100 µM (inactive) | GI50 (SK-MEL-28): > 100 µM (inactive) | GI50 (SK-MEL-2): 71.1 µM (inactive) | GI50 (SK-MEL-5): > 100 µM (inactive) | GI50 (SK-OV-3): > 100 µM (inactive) | GI50 (SN12C): > 100 µM (inactive) | GI50 (SNB-19): > 100 µM (inactive) | GI50 (SNB-75): 23.7 µM (inactive) | GI50 (SNB-78): > 100 µM (inactive) | GI50 (SW-620): > 100 µM (inactive) | GI50 (TK-10): > 100 µM (inactive) | GI50 (U-251): > 100 µM (inactive) | GI50 (UACC-257): > 100 µM (inactive) | GI50 (UACC-62): > 100 µM (inactive) | GI50 (UO-31): > 100 µM (inactive) | GI50 (XF498): > 100 µM (inactive)

Clc1cc(Cl)c2ns[s+]c2c1Cl
GI50 (786-0): > 100 µM (inactive) | GI50 (A498): > 100 µM (inactive) | GI50 (A549): > 100 µM (inactive) | GI50 (ACHN): > 100 µM (inactive) | GI50 (CAKI-1): > 100 µM (inactive) | GI50 (CCRF-CEM): > 100 µM (inactive) | GI50 (COLO 205): > 100 µM (inactive) | GI50 (DLD-1): > 100 µM (inactive) | GI50 (DMS-273): > 100 µM (inactive) | GI50 (EKVX): > 100 µM (inactive) | GI50 (HCC 2998): > 10 µM (inactive) | GI50 (HCT-116): > 100 µM (inactive) | GI50 (HL-60): > 100 µM (inactive) | GI50 (HOP-18): 78.3 µM (inactive) | GI50 (HOP-62): > 100 µM (inactive) | GI50 (HT-29): > 100 µM (inactive) | GI50 (IGROV-1): > 100 µM (inactive) | GI50 (K562): > 100 µM (inactive) | GI50 (KM-20L2): > 100 µM (inactive) | GI50 (KM12): > 100 µM (inactive) | GI50 (LOX IMVI): > 100 µM (inactive) | GI50 (LXFL 529): > 100 µM (inactive) | GI50 (M14): > 100 µM (inactive) | GI50 (M19-MEL): > 100 µM (inactive) | GI50 (MOLT-4): > 100 µM (inactive) | GI50 (Malme-3M): 37.8 µM (inactive) | GI50 (NCI-H226): > 100 µM (inactive) | GI50 (NCI-H23): 0.132 µM (active) | GI50 (NCI-H460): > 100 µM (inactive) | GI50 (NCI-H522): > 100 µM (inactive) | GI50 (OVCAR-3): > 100 µM (inactive) | GI50 (OVCAR-4): > 100 µM (inactive) | GI50 (OVCAR-5): > 100 µM (inactive) | GI50 (OVCAR-8): > 100 µM (inactive) | GI50 (RXF 393): > 100 µM (inactive) | GI50 (SF-268): > 100 µM (inactive) | GI50 (SF-295): > 100 µM (inactive) | GI50 (SF-539): > 100 µM (inactive) | GI50 (SK-MEL-28): > 100 µM (inactive) | GI50 (SK-MEL-2): > 100 µM (inactive) | GI50 (SK-MEL-5): > 100 µM (inactive) | GI50 (SK-OV-3): > 100 µM (inactive) | GI50 (SN12C): > 100 µM (inactive) | GI50 (SNB-19): > 100 µM (inactive) | GI50 (SNB-75): 43.4 µM (inactive) | GI50 (SNB-78): 0.158 µM (active) | GI50 (SR): > 100 µM (inactive) | GI50 (SW-620): > 100 µM (inactive) | GI50 (TK-10): > 100 µM (inactive) | GI50 (U-251): > 100 µM (inactive) | GI50 (UACC-257): > 100 µM (inactive) | GI50 (UACC-62): > 100 µM (inactive) | GI50 (UO-31): > 100 µM (inactive) | GI50 (XF498): > 100 µM (inactive)

Cn1cnc([N+](=O)[O-])c1Sc1nnnn1C
GI50 (786-0): 17.6 µM (inactive) | GI50 (A498): 65.6 µM (inactive) | GI50 (A549): 99.5 µM (inactive) | GI50 (ACHN): 16.2 µM (inactive) | GI50 (CAKI-1): 17.1 µM (inactive) | GI50 (CCRF-CEM): 7.46 µM (inactive) | GI50 (COLO 205): 12.8 µM (inactive) | GI50 (DLD-1): 14.5 µM (inactive) | GI50 (DMS-114): 17 µM (inactive) | GI50 (DMS-273): 17.7 µM (inactive) | GI50 (EKVX): 18.3 µM (inactive) | GI50 (HCC 2998): 23.6 µM (inactive) | GI50 (HCT-116): 14.9 µM (inactive) | GI50 (HOP-18): 9.86 µM (inactive) | GI50 (HOP-62): > 100 µM (inactive) | GI50 (HOP-92): 12.3 µM (inactive) | GI50 (HT-29): 19.4 µM (inactive) | GI50 (IGROV-1): 19.5 µM (inactive) | GI50 (K562): 16.7 µM (inactive) | GI50 (KM12): 56.9 µM (inactive) | GI50 (LOX IMVI): 13.4 µM (inactive) | GI50 (LXFL 529): 12.1 µM (inactive) | GI50 (M14): 14.8 µM (inactive) | GI50 (M19-MEL): 15.7 µM (inactive) | GI50 (MOLT-4): 9.12 µM (inactive) | GI50 (Malme-3M): 13.2 µM (inactive) | GI50 (NCI-H226): 44.7 µM (inactive) | GI50 (NCI-H23): 19.6 µM (inactive) | GI50 (NCI-H460): 39.8 µM (inactive) | GI50 (NCI-H522): 6.38 µM (inactive) | GI50 (OVCAR-3): 15.9 µM (inactive) | GI50 (OVCAR-4): 16.9 µM (inactive) | GI50 (OVCAR-5): 23.9 µM (inactive) | GI50 (OVCAR-8): 17.2 µM (inactive) | GI50 (RPMI-8226): 23 µM (inactive) | GI50 (SF-268): 21.5 µM (inactive) | GI50 (SF-295): > 100 µM (inactive) | GI50 (SF-539): 18.2 µM (inactive) | GI50 (SK-MEL-28): 14.3 µM (inactive) | GI50 (SK-MEL-2): 16.9 µM (inactive) | GI50 (SK-MEL-5): 17.3 µM (inactive) | GI50 (SK-OV-3): > 100 µM (inactive) | GI50 (SN12C): 16.3 µM (inactive) | GI50 (SNB-19): > 100 µM (inactive) | GI50 (SNB-75): 25.3 µM (inactive) | GI50 (SNB-78): 12.7 µM (inactive) | GI50 (SR): 11.4 µM (inactive) | GI50 (SW-620): 13.1 µM (inactive) | GI50 (TK-10): 17.5 µM (inactive) | GI50 (U-251): 18 µM (inactive) | GI50 (UACC-257): 16.3 µM (inactive) | GI50 (UACC-62): 17.1 µM (inactive) | GI50 (UO-31): 15.3 µM (inactive) | GI50 (XF498): 15.6 µM (inactive)
